Measurements: patent US12723063B2, “GIPR-agonist compounds” (Eli Lilly and Company, priority 2019, dated 2026)
*1 amine or outer side, *2 acyl side, *3 side chain or, on linkers, in order; H or OH if unused. Where a SMILES comes first, the peptide text is derived from it. Side-chain parts run from the residue outwards. [ ]: non-standard residue; d: D form. The star is where a group is joined. C20 diacid = O=C(O)CCCCCCCCCCCCCCCCCCC(=O)*; C18 diacid = O=C(O)CCCCCCCCCCCCCCCCC(=O)*; γGlu = O=C(O)[C@H](CCC(=O)[*:2])N[*:1]; 4Pal = N[C@@H](Cc1ccncc1)C(=O)O; αMeL = CC(C)C[C@](C)(N)C(=O)O; Iva = CC[C@](C)(N)C(=O)O; Orn = NCCC[C@H](N)C(=O)O; AEEA = NCCOCCOCC(=O)O; Aib = CC(C)(N)C(=O)O

How the values were obtained:
[1] = target: T1, human GcgR (Homo sapiens, UniProt P47871); assay: [125I]-Glucagon binding, SPA with WGA beads, 0.1% bacitracin; details: geometric mean, read-out: hGcgR Ki
T1 construct: expressed in transfected cells; crude membranes
Method in brief: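 SPA competition binding with WGA beads on crude membranes from HEK293 cells stably expressing hGcgR. Buffer: 25 mM HEPES pH 7.4, 2.5 mM CaCl2, 1 mM MgCl2, 0.1% bacitracin, 0.003% Tween-20; 10-point 3-fold dilutions, NSB with 1 μM Gcg.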

[2] = target: T2, human GLP-1 receptor (GLP-1R) (Homo sapiens, UniProt P43220); assay: cAMP functional assay (HTRF) in HEK293 cells in presence of 0.1% casein; assay type: cell-based; details: HEK293 cells expressing human GLP-1R, geometric mean, read-out: hGLP1R cAMP Rel EC50 nM (SEM, n)
T2 construct: expressed in transfected cells; host or cells: HEK293

[3] = target: T3, human glucagon receptor (GcgR) (Homo sapiens, UniProt P47871); assay: as above; assay type: cell-based; details: HEK293 cells expressing human GcgR, geometric mean, read-out: hGcgR cAMP Rel EC50 nM (SEM, n)
T3 construct: expressed in transfected cells; host or cells: HEK293
T3 sequence (P47871 26-477): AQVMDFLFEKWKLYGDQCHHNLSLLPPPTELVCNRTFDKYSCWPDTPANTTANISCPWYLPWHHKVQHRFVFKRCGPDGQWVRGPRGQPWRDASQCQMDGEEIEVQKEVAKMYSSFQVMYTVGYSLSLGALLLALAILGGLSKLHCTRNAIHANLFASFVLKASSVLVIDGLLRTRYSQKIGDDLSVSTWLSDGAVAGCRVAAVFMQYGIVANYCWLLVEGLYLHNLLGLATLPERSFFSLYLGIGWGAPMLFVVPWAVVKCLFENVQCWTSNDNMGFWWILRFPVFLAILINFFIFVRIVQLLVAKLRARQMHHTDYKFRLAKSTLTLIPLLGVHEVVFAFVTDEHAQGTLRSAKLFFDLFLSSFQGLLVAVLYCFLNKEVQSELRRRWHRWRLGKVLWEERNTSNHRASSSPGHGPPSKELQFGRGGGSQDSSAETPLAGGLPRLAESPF

T1 sequence (P47871 26-477): as above
T2 sequence (P43220 24-463): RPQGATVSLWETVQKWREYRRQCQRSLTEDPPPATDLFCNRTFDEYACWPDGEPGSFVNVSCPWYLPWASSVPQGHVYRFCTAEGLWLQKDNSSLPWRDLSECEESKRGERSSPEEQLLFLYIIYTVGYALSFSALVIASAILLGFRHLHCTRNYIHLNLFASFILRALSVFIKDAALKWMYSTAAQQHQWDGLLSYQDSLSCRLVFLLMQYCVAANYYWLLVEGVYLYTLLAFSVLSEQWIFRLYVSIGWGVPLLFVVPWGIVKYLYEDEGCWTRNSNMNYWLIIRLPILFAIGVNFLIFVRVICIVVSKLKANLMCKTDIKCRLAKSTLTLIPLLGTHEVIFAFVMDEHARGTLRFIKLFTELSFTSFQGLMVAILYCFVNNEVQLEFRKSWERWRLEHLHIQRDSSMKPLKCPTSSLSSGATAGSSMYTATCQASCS

CC[C@H](C)[C@H](NC(=O)[C@H](CO)NC(=O)[C@H](Cc1ccc(O)cc1)NC(=O)[C@H](CC(=O)O)NC(=O)[C@H](CO)NC(=O)[C@@H](NC(=O)[C@](C)(CC)NC(=O)[C@@H](NC(=O)CNC(=O)[C@H](CCC(=O)O)NC(=O)C(C)(C)NC(=O)[C@@H](N)Cc1ccc(O)cc1)[C@@H](C)O)[C@@H](C)CC)C(=O)N[C@@](C)(CC(C)C)C(=O)N[C@@H](CC(C)C)C(=O)N[C@@H](CC(=O)O)C(=O)N[C@@H](CCCCN)C(=O)N[C@@H](CCCCNC(=O)COCCOCCNC(=O)COCCOCCNC(=O)CC[C@H](NC(=O)CCCCCCCCCCCCCCCCCCC(=O)O)C(=O)O)C(=O)N[C@@H](Cc1c[nH]cn1)C(=O)N[C@@H](CCC(N)=O)C(=O)NC(C)(C)C(=O)N[C@@H](CC(=O)O)C(=O)N[C@@H](Cc1ccccc1)C(=O)N[C@H](C(=O)N[C@@H](CCC(=O)O)C(=O)N[C@@H](Cc1ccncc1)C(=O)N[C@@H](CC(C)C)C(=O)N[C@@H](CC(C)C)C(=O)N[C@@H](CCC(=O)O)C(=O)N[C@H](C(=O)NCC(=O)N1CCC[C@H]1C(=O)N[C@@H](CO)C(=O)N[C@@H](CO)C(=O)NCC(=O)N[C@@H](C)C(=O)N1CCC[C@H]1C(=O)N1CCC[C@H]1C(=O)N1CCC[C@H]1C(=O)N[C@@H](CO)C(N)=O)[C@@H](C)O)C(C)C [Example 75] (H-Y[Aib]EGT[Iva]ISDYSI[αMeL]LDKK([AEEA-AEEA-γGlu-C20 diacid])HQ[Aib]DFVE[4Pal]LLETGPSSGAPPPS-NH2)
Ki [1]: > 0.958 µM
EC50 [2]: > 5000 nM
EC50 [3]: 2170 nM

CC[C@H](C)[C@H](NC(=O)[C@H](CO)NC(=O)[C@H](Cc1ccc(O)cc1)NC(=O)[C@H](CC(=O)O)NC(=O)[C@H](CO)NC(=O)[C@@H](NC(=O)[C@H](Cc1ccccc1)NC(=O)[C@@H](NC(=O)CNC(=O)[C@H](CCC(=O)O)NC(=O)[C@@H](C)NC(=O)[C@@H](N)Cc1ccc(O)cc1)[C@@H](C)O)[C@@H](C)CC)C(=O)N[C@@H](CC(C)C)C(=O)N[C@@H](CC(C)C)C(=O)N[C@@H](CC(=O)O)C(=O)N[C@@H](CCCCN)C(=O)N[C@@H](CCCCNC(=O)COCCOCCNC(=O)COCCOCCNC(=O)CC[C@H](NC(=O)CCCCCCCCCCCCCCCCCCC(=O)O)C(=O)O)C(=O)N[C@@H](Cc1c[nH]cn1)C(=O)N[C@@H](CCC(N)=O)C(=O)NC(C)(C)C(=O)N[C@@H](CC(=O)O)C(=O)N[C@@H](Cc1ccccc1)C(=O)N[C@H](C(=O)N[C@@H](CC(N)=O)C(=O)N[C@@H](Cc1c[nH]c2ccccc12)C(=O)N[C@@H](CC(C)C)C(=O)N[C@@H](CC(C)C)C(=O)N[C@@H](C)C(=O)N[C@@H](CCC(N)=O)C(=O)NCC(=O)N1CCC[C@H]1C(=O)N[C@@H](CO)C(=O)N[C@@H](CO)C(=O)NCC(=O)N[C@@H](C)C(=O)N1CCC[C@H]1C(=O)N1CCC[C@H]1C(=O)N1CCC[C@H]1C(=O)N[C@@H](CO)C(N)=O)C(C)C [Example 9] (H-Y[dA]EGTFISDYSILLDKK([AEEA-AEEA-γGlu-C20 diacid])HQ[Aib]DFVNWLLAQGPSSGAPPPS-NH2)
Ki [1]: > 0.23 µM
EC50 [2]: > 100 nM
EC50 [3]: > 5000 nM

CC[C@H](C)[C@H](NC(=O)[C@H](CCCN)NC(=O)[C@H](CC(=O)O)NC(=O)[C@H](CC(C)C)NC(=O)[C@](C)(CC(C)C)NC(=O)[C@@H](NC(=O)[C@H](CO)NC(=O)[C@H](Cc1ccc(O)cc1)NC(=O)[C@H](CC(=O)O)NC(=O)[C@H](CO)NC(=O)[C@@H](NC(=O)[C@H](Cc1ccccc1)NC(=O)[C@@H](NC(=O)CNC(=O)[C@H](CCC(=O)O)NC(=O)C(C)(C)NC(=O)[C@@H](N)Cc1ccc(O)cc1)[C@@H](C)O)[C@@H](C)CC)[C@@H](C)CC)C(=O)N[C@@H](Cc1c[nH]cn1)C(=O)N[C@@H](CCC(N)=O)C(=O)NC(C)(C)C(=O)N[C@@H](CCC(=O)O)C(=O)N[C@@H](Cc1ccccc1)C(=O)N[C@H](C(=O)N[C@@H](CCC(=O)O)C(=O)N[C@@H](Cc1ccc(O)cc1)C(=O)N[C@@H](CCCCNC(=O)COCCOCCNC(=O)COCCOCCNC(=O)CC[C@H](NC(=O)CCCCCCCCCCCCCCCCCCC(=O)O)C(=O)O)C(=O)N[C@@H](CC(C)C)C(=O)N[C@@H](CCC(=O)O)C(=O)N[C@@H](CCC(N)=O)C(=O)NCC(=O)N1CCC[C@H]1C(=O)N[C@@H](CO)C(=O)N[C@@H](CO)C(=O)NCC(=O)N[C@@H](C)C(=O)N1CCC[C@H]1C(=O)N1CCC[C@H]1C(=O)N1CCC[C@H]1C(=O)N[C@@H](CO)C(N)=O)C(C)C [Example 106] (H-Y[Aib]EGTFISDYSI[αMeL]LD[Orn]IHQ[Aib]EFVEYK([AEEA-AEEA-γGlu-C20 diacid])LEQGPSSGAPPPS-NH2)
Ki [1]: 0.304 µM
EC50 [2]: > 5000 nM
EC50 [3]: > 5000 nM

CC[C@H](C)[C@H](NC(=O)[C@H](CO)NC(=O)[C@H](Cc1ccc(O)cc1)NC(=O)[C@H](CC(=O)O)NC(=O)[C@H](CO)NC(=O)[C@@H](NC(=O)[C@H](Cc1ccccc1)NC(=O)[C@@H](NC(=O)CNC(=O)[C@H](CCC(=O)O)NC(=O)[C@@H](C)NC(=O)[C@@H](N)Cc1ccc(O)cc1)[C@@H](C)O)[C@@H](C)CC)C(=O)N[C@@H](CC(C)C)C(=O)N[C@@H](CC(C)C)C(=O)N[C@@H](CC(=O)O)C(=O)N[C@@H](CCCCN)C(=O)N[C@@H](CCCCNC(=O)COCCOCCNC(=O)COCCOCCNC(=O)CC[C@H](NC(=O)CCCCCCCCCCCCCCCCC(=O)O)C(=O)O)C(=O)N[C@@H](C)C(=O)N[C@@H](CCC(N)=O)C(=O)NC(C)(C)C(=O)N[C@@H](CC(=O)O)C(=O)N[C@@H](Cc1ccccc1)C(=O)N[C@H](C(=O)N[C@@H](CC(N)=O)C(=O)N[C@@H](Cc1c[nH]c2ccccc12)C(=O)N[C@@H](CC(C)C)C(=O)N[C@@H](CC(C)C)C(=O)N[C@@H](CCC(=O)O)C(=O)N[C@@H](CCC(N)=O)C(=O)NCC(=O)N1CCC[C@H]1C(=O)N[C@@H](CO)C(=O)N[C@@H](CO)C(=O)NCC(=O)N[C@@H](C)C(=O)N1CCC[C@H]1C(=O)N1CCC[C@H]1C(=O)N1CCC[C@H]1C(=O)N[C@@H](CO)C(N)=O)C(C)C [Example 17] (H-Y[dA]EGTFISDYSILLDKK([AEEA-AEEA-γGlu-C18 diacid])AQ[Aib]DFVNWLLEQGPSSGAPPPS-NH2)
Ki [1]: 0.274 µM
EC50 [2]: > 5000 nM
EC50 [3]: > 5000 nM

CC[C@H](C)[C@H](NC(=O)[C@H](CCCCN)NC(=O)[C@H](CC(=O)O)NC(=O)[C@H](CC(C)C)NC(=O)[C@](C)(CC(C)C)NC(=O)[C@@H](NC(=O)[C@H](CO)NC(=O)[C@H](Cc1ccc(O)cc1)NC(=O)[C@H](CC(=O)O)NC(=O)[C@H](CO)NC(=O)[C@@H](NC(=O)[C@H](Cc1ccccc1)NC(=O)[C@@H](NC(=O)CNC(=O)[C@H](CCC(=O)O)NC(=O)C(C)(C)NC(=O)[C@@H](N)Cc1ccc(O)cc1)[C@@H](C)O)[C@@H](C)CC)[C@@H](C)CC)C(=O)N[C@@H](Cc1c[nH]cn1)C(=O)N[C@@H](CCC(N)=O)C(=O)NC(C)(C)C(=O)N[C@@H](CCC(=O)O)C(=O)N[C@@H](Cc1ccccc1)C(=O)N[C@H](C(=O)N[C@@H](CCC(=O)O)C(=O)N[C@@H](Cc1ccncc1)C(=O)N[C@@H](CCCCNC(=O)COCCOCCNC(=O)COCCOCCNC(=O)CC[C@H](NC(=O)CCCCCCCCCCCCCCCCCCC(=O)O)C(=O)O)C(=O)N[C@@H](CC(C)C)C(=O)N[C@@H](CCC(=O)O)C(=O)NCC(=O)NCC(=O)N1CCC[C@H]1C(=O)N[C@@H](CO)C(=O)N[C@@H](CO)C(=O)NCC(=O)N[C@@H](C)C(=O)N1CCC[C@H]1C(=O)N1CCC[C@H]1C(=O)N1CCC[C@H]1C(=O)N[C@@H](CO)C(N)=O)C(C)C [Example 100] (H-Y[Aib]EGTFISDYSI[αMeL]LDKIHQ[Aib]EFVE[4Pal]K([AEEA-AEEA-γGlu-C20 diacid])LEGGPSSGAPPPS-NH2)
Ki [1]: 0.572 µM
EC50 [2]: > 5000 nM
EC50 [3]: > 5000 nM

CC[C@H](C)[C@H](NC(=O)[C@H](CO)NC(=O)[C@H](Cc1ccc(O)cc1)NC(=O)[C@H](CC(=O)O)NC(=O)[C@H](CO)NC(=O)[C@@H](NC(=O)[C@H](Cc1ccccc1)NC(=O)[C@@H](NC(=O)CNC(=O)[C@H](CCC(=O)O)NC(=O)[C@@H](C)NC(=O)[C@@H](N)Cc1ccc(O)cc1)[C@@H](C)O)[C@@H](C)CC)C(=O)N[C@@H](CC(C)C)C(=O)N[C@@H](CC(C)C)C(=O)N[C@@H](CC(=O)O)C(=O)N[C@@H](CCCCN)C(=O)N[C@@H](CCCCNC(=O)COCCOCCNC(=O)COCCOCCNC(=O)CC[C@H](NC(=O)CCCCCCCCCCCCCCCCC(=O)O)C(=O)O)C(=O)N[C@@H](C)C(=O)N[C@@H](CCC(N)=O)C(=O)NC(C)(C)C(=O)N[C@@H](CCC(=O)O)C(=O)N[C@@H](Cc1ccccc1)C(=O)N[C@H](C(=O)N[C@@H](CCC(=O)O)C(=O)N[C@@H](Cc1c[nH]c2ccccc12)C(=O)N[C@@H](CC(C)C)C(=O)N[C@@H](CC(C)C)C(=O)N[C@@H](C)C(=O)NCC(=O)NCC(=O)N1CCC[C@H]1C(=O)N[C@@H](CO)C(=O)N[C@@H](CO)C(=O)NCC(=O)N[C@@H](C)C(=O)N1CCC[C@H]1C(=O)N1CCC[C@H]1C(=O)N1CCC[C@H]1C(=O)N[C@@H](CO)C(N)=O)C(C)C [Example 29] (H-Y[dA]EGTFISDYSILLDKK([AEEA-AEEA-γGlu-C18 diacid])AQ[Aib]EFVEWLLAGGPSSGAPPPS-NH2)
Ki [1]: 0.133 µM
EC50 [2]: > 5000 nM
EC50 [3]: > 5000 nM
